Consider seven compounds from PubChem BioAssay (NCI).

Some test systems named below: OVCAR-3 ovarian; SNB-19 CNS; A498 renal; HCC-2998 colon; K-562 leukemia; CCRF-CEM leukemia; A549 NSCLC; MALME-3M melanoma; LOX IMVI melanoma; EKVX NSCLC.
What all share (test): growth of human tumour cells (NCI), 48 h

Molecules are shown by their SMILES.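 Each compound was tested at five concentrations against cells in 96-well plates for 48 hours. GI50 = concentration required for 50% inhibition of growth. TGI marks complete inhibition of growth.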

As for `CCOc1c(Cl)cc(CNC(C)C(O)c2ccccc2)cc1OC` (stereo not drawn), the GI50 in the assay with OVCAR-3 ovarian is 40.1 µM; in the assay on SNB-19 CNS, 32.7 µM; in the assay on A498 renal it was 0.244 µM; with HCC-2998 colon it was 16.6 µM; with K-562 leukemia, 20.9 µM; in the assay on CCRF-CEM leukemia, 35.6 µM. Besides, the GI50 is 43.9 µM in the assay with A549 NSCLC, 16.6 µM with MALME-3M melanoma and 17 µM in the assay with LOX IMVI melanoma. Besides, the TGI is over 100 µM with OVCAR-3 ovarian; over 100 µM in the assay on SNB-19 CNS; 26.4 µM in the assay with A498 renal; 32.7 µM with HCC-2998 colon; 68.9 µM in the assay with K-562 leukemia; over 100 µM in the assay on CCRF-CEM leukemia. Further, the TGI in the assay on A549 NSCLC is over 100 µM; with MALME-3M melanoma, 33.6 µM; in the assay with LOX IMVI melanoma it was 30.7 µM.
Turning to `Cc1cc(-c2nnc3n2CCCCC3)c(C)n1-c1ccc(Cl)c(Cl)c1`, the GI50 in the assay with OVCAR-3 ovarian is 10.2 µM; with SNB-19 CNS, 15.5 µM; in the assay on A498 renal, 14 µM; in the assay on HCC-2998 colon it was 14 µM; in the assay with K-562 leukemia, 5.14 µM; with CCRF-CEM leukemia it was 18.5 µM. For the same compound, the results for the GI50 with A549 NSCLC, with MALME-3M melanoma and in the assay on LOX IMVI melanoma were 16.8 µM, 13.8 µM and 12.1 µM, respectively. Further, the TGI was found to be 23.7 µM with OVCAR-3 ovarian; 47.1 µM in the assay with SNB-19 CNS; 28 µM in the assay with A498 renal; 29.3 µM with HCC-2998 colon; 39.3 µM with K-562 leukemia; 71.5 µM in the assay on CCRF-CEM leukemia. The results for the TGI in the assay on A549 NSCLC, in the assay with MALME-3M melanoma and in the assay on LOX IMVI melanoma were 65.8 µM, 30.4 µM and 32.2 µM, respectively.
In the case of `O=C(OC[C@H]1O[C@@H](OC(=O)c2cc(O)c(O)c(O)c2)[C@H](OC(=O)c2cc(O)c(O)c(O)c2)[C@@H](OC(=O)c2cc(O)c(O)c(O)c2)[C@@H]1OC(=O)c1cc(O)c(O)c(O)c1)c1cc(O)c(O)c(O)c1`, the TGI in the assay on OVCAR-3 ovarian was 17.7 µM; in the assay on SNB-19 CNS it was over 100 µM; in the assay on A498 renal, 37.5 µM; with HCC-2998 colon, 12.3 µM; in the assay with K-562 leukemia, over 100 µM; in the assay on CCRF-CEM leukemia it was over 100 µM. For the same compound, the values for the TGI in the assay with A549 NSCLC, in the assay on EKVX NSCLC and with LOX IMVI melanoma were 19.8 µM, 70.9 µM and 4.41 µM, respectively.
Take `O=C1C2Cc3ccccc3CN2C(=O)N1CCN1CCCC1` (stereo not drawn): the TGI in the assay on OVCAR-3 ovarian, with SNB-19 CNS, in the assay with A498 renal, in the assay with HCC-2998 colon, with K-562 leukemia and in the assay with CCRF-CEM leukemia was over 100 µM in each case. The TGI with A549 NSCLC, in the assay with MALME-3M melanoma and in the assay with LOX IMVI melanoma was over 100 µM throughout.
For `FCc1ncc(-c2ccc(C(F)(F)F)cc2)c(NC2CCCCCC2)n1`, the GI50 with OVCAR-3 ovarian, in the assay on SNB-19 CNS, with A498 renal, in the assay on HCC-2998 colon, with K-562 leukemia and with CCRF-CEM leukemia was over 10 µM in each case. Moreover, the GI50 with A549 NSCLC, in the assay with MALME-3M melanoma and in the assay on LOX IMVI melanoma was over 10 µM throughout. For the same compound, the TGI with OVCAR-3 ovarian, in the assay with SNB-19 CNS, in the assay on A498 renal, in the assay on HCC-2998 colon, in the assay with K-562 leukemia and with CCRF-CEM leukemia was over 10 µM throughout. For the same compound, the TGI in the assay with A549 NSCLC, in the assay with MALME-3M melanoma and in the assay on LOX IMVI melanoma was over 10 µM throughout.
`COc1cc(Cn2c(-c3nonc3N)nc3ccccc32)ccc1C`: the GI50 was 0.328 µM with OVCAR-3 ovarian; 0.626 µM in the assay on SNB-19 CNS; 0.142 µM in the assay on A498 renal; 1.42 µM with HCC-2998 colon; 0.375 µM in the assay on K-562 leukemia; 0.403 µM in the assay with CCRF-CEM leukemia. Moreover, the values for the GI50 in the assay on A549 NSCLC, in the assay with MALME-3M melanoma and in the assay on LOX IMVI melanoma were 0.625 µM, 0.526 µM and 0.649 µM, respectively. The TGI was 0.906 µM with OVCAR-3 ovarian; 45.5 µM in the assay with SNB-19 CNS; 1.66 µM with A498 renal; over 100 µM with HCC-2998 colon; over 100 µM with K-562 leukemia; over 100 µM with CCRF-CEM leukemia. For the same compound, the figures for the TGI with A549 NSCLC, with MALME-3M melanoma and in the assay on LOX IMVI melanoma were over 100 µM, 72.7 µM and over 100 µM, respectively.
With `COc1ccc(CN2c3ccccc3CCc3ccccc32)cc1F`, the GI50 in the assay on OVCAR-3 ovarian was 0.285 µM; in the assay on SNB-19 CNS, 0.697 µM; with A498 renal it was 0.339 µM; in the assay with HCC-2998 colon it was 8.9 µM; with K-562 leukemia, 0.402 µM; in the assay on CCRF-CEM leukemia, 0.515 µM. For the same compound, the figures for the GI50 in the assay with A549 NSCLC, in the assay on EKVX NSCLC and with LOX IMVI melanoma were 0.732 µM, 1.55 µM and 0.725 µM, respectively. Also, the TGI in the assay on OVCAR-3 ovarian is 0.785 µM; in the assay with SNB-19 CNS, over 100 µM; in the assay with A498 renal, over 100 µM; with HCC-2998 colon, over 100 µM; in the assay with K-562 leukemia, over 100 µM; with CCRF-CEM leukemia it was over 100 µM. For the same compound, the TGI with A549 NSCLC, with EKVX NSCLC and in the assay on LOX IMVI melanoma was over 100 µM each time.
